Patent US6790958B2, “Purine inhibitors of cyclin dependent kinase 2 & IKBA” (priority 1996, dated 2004)

Columns and labels:
[1] = test system: MCF7 human breast adenocarcinoma; test: Cell proliferation assay, MCF7; type: cell-based; conditions: MCF7 cells
Method: (§1) Early passage rat aortic smooth muscle cells (CV Therapeutics Cell repository) were seeded in 48 well dishes (Falcon, […]) at a density of 20,000 cells/ml of DME containing 5% heat inactivated bovine serum. The cells were incubated in a standard tissue culture incubator for 48 hr. The medium was aspirated and the wells were replenished with 0.2 ml of fresh medium. Compounds of this invention were added at concentrations ranging from 100 to 0.37 μg/ml. After 48 hr incubation, the medium was aspirated and the cultures were treated with 0.2 ml of saline 0.25 μl of phenozine methosulfate solution containing MTS (Cell Titer 96® Aqueous Non-radioactive cell proliferation assay kit, Catalog # G 5430, Promega, 2800 Woods Hollow Road, Madison, Wis. 53711-5399).
(§2) Similar assays were performed using the following cell lines; P388—mouse lymphoid neoplasm; L1210—mouse lympheytic leukemia; Caco2 human colon adenocarcinoma; MCF7 human breast adenocarcinoma; PupVSMC rat neonatal aortic smooth muscle cells; Ovcar human ovarian Carcinoma; Pancl human pancreatic adenocarcinoma; and HUVEC human umbilical cord endothelial cells.

[2] = test system: Caco2 human colon adenocarcinoma; test: Cell proliferation assay, Caco2; type: cell-based; conditions: Caco2 cells
Method: as §1, §2

[3] = test system: PupVSMC rat neonatal aortic smooth muscle cells; test: Cell proliferation assay, PupVSMC; type: cell-based
Method: as §1, §2

[4] = test system: Pancl human pancreatic adenocarcinoma; test: Cell proliferation assay, Panc1; type: cell-based; conditions: Panc 1 cells
Method: as §1, §2

[5] = test system: P388 mouse lymphoid neoplasm; test: Cell proliferation assay, P388; type: cell-based; conditions: P388 cells
Method: as §1, §2

[6] = test system: L1210 mouse lympheytic leukemia; test: Cell proliferation assay, L1210; type: cell-based; conditions: L 120 cells
Method: as §1, §2

[7] = test system: Ovcar human ovarian Carcinoma; test: Cell proliferation assay, OvCar; type: cell-based; conditions: OvCar cells
Method: as §1, §2

rat carotid artery = test: Neointima formation following balloon angioplasty, rat carotid artery model; type: in vivo; conditions: 5 mg/mL, acute local delivery, 14 days after injury, treated vs untreated segment
Text: In this example, the left common carotid arteries of adult male rats (n=10 per experimental group) were surgically injured using a Fogarty arterial embolectomy catheter. Immediately after injury, the common carotid artery was bisected with a vascular clamp, thereby establishing an untreated and treated segment. A drug delivery catheter was then inserted into the distal half of the common carotid. After drug delivery, the catheter was removed and excess drug was washed out by removing the vascular clamp and re-establishing blood flow before closing the artery. The animals were allowed to recover for 14 days before harvesting the common carotid artery. The harvested tissue was sectioned and the neointimal area was digitized and measured with a computer planimetery system. For each animal, 15 measurements were averaged for the untreated segment and 15 for the treated. {2-[(2-aminoethyl)amino]-9-(methylethyl)purin-6-yl}[(4-chlorophenyl)methyl]amine was administered at a dose of 5 mg/mL reducing the neointimal area about 90% in comparison to the 6% reduction of saline alone.

Row | Structure (SMILES) | IC50 (μg/ml) for Inhibition of Cell Proliferation, MCF7 [1] | IC50 (μg/ml) for Inhibition of Cell Proliferation, Caco2 [2] | IC50 (μg/ml) for Inhibition of Cell Proliferation, PupVSMC ([3]; PupVSMC cells, Table 8) | IC50 (μg/ml) for Inhibition of Cell Proliferation, Panc 1 [4] | IC50 (μg/ml) for Inhibition of Cell Proliferation, P 388 [5] | IC50 (μg/ml) for Inhibition of Cell Proliferation, L 120 [6] | IC50 (μg/ml) for Inhibition of Cell Proliferation, OvCar [7] | reduction of the neointimal area (rat carotid artery) | inhibitory activity, Pup VSMC ([3]; Rat neonatal aortic smooth muscle cells, Table 9, the values are: IC50)
1 | CC(C)n1cnc2c(Nc3ccc(-c4ccccc4)cc3)nc(N(CCO)CCO)nc21 [2-diethanolamino-6-(4-phenylanilino)-9-isopropylpurine] | 4.0 µg/mL | 0.5 µg/mL | 1.0 µg/mL | 4.0 µg/mL | 1.0 µg/mL | 4.0 µg/mL | 7.0 µg/mL |  | 
2 | CC(C)n1cnc2c(NCc3ccc(Cl)cc3)nc(NCCN)nc21 [{2-[(2-aminoethyl)amino]-9-(methylethyl)purin-6-yl}[(4-chlorophenyl)methyl]amine] |  |  |  |  |  |  |  | about 90% | 0.1 µg/mL
